Laboratory results reported in ChEMBL document CHEMBL3431459, “Roche carnitine palmitoyltransferase modulator screening data (supplementary data associated with the publication CHEMBL2216752)”.
Converted amounts (≈) assume the structure as drawn.

Columns and labels:
[1] = biological target: T1, Carnitine O-palmitoyltransferase 2, mitochondrial (Rattus norvegicus, UniProt P18886); experiment: (§1) SUPPLEMENTARY: Inhibition of Carnitine palmitoyltransferase 2
T1 sequence (P18886 whole entry): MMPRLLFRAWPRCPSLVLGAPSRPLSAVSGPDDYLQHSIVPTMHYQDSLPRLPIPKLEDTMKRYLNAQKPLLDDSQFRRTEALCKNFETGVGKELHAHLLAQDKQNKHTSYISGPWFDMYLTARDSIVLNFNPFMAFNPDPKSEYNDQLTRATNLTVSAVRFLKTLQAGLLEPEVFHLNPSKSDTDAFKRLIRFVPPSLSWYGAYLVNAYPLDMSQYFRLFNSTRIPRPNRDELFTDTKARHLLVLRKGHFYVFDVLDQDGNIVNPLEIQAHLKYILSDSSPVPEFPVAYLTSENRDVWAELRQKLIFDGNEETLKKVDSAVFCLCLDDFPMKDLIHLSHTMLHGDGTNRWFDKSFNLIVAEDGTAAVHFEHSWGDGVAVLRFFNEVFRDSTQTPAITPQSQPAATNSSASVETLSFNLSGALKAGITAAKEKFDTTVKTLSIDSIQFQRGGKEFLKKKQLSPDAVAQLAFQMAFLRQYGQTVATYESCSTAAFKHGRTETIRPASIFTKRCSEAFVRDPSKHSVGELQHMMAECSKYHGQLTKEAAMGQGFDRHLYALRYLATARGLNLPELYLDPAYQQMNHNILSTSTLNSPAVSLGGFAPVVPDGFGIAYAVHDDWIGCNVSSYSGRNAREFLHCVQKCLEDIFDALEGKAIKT

[2] = biological target: T2, Carnitine O-palmitoyltransferase 2, mitochondrial (Homo sapiens, UniProt P23786); experiment: as §1
T2 sequence (P23786 whole entry): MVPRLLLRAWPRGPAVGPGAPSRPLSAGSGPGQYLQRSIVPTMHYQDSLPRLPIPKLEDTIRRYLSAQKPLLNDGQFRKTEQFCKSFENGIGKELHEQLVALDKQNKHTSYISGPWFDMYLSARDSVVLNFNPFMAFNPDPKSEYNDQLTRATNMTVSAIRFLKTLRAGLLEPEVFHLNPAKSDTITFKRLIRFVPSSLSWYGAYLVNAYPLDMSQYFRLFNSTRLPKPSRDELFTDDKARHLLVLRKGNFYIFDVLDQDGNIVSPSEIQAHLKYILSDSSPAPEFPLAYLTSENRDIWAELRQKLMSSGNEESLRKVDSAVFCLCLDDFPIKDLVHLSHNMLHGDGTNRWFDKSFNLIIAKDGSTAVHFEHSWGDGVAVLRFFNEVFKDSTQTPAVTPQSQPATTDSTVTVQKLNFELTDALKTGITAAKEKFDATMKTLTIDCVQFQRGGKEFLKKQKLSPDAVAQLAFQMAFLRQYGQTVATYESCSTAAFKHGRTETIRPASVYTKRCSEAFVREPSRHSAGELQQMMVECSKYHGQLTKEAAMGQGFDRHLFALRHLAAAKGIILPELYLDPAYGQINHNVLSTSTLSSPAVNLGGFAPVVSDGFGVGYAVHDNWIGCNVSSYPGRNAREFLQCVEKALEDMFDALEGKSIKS

[3] = biological target: T3, Carnitine O-palmitoyltransferase 1, muscle isoform (Homo sapiens, UniProt Q92523); experiment: SUPPLEMENTARY: Inhibition of Carnitine palmitoyltransferase 1, muscle isoform; set-up: species or system Muscle tissue
T3 sequence (Q92523 whole entry): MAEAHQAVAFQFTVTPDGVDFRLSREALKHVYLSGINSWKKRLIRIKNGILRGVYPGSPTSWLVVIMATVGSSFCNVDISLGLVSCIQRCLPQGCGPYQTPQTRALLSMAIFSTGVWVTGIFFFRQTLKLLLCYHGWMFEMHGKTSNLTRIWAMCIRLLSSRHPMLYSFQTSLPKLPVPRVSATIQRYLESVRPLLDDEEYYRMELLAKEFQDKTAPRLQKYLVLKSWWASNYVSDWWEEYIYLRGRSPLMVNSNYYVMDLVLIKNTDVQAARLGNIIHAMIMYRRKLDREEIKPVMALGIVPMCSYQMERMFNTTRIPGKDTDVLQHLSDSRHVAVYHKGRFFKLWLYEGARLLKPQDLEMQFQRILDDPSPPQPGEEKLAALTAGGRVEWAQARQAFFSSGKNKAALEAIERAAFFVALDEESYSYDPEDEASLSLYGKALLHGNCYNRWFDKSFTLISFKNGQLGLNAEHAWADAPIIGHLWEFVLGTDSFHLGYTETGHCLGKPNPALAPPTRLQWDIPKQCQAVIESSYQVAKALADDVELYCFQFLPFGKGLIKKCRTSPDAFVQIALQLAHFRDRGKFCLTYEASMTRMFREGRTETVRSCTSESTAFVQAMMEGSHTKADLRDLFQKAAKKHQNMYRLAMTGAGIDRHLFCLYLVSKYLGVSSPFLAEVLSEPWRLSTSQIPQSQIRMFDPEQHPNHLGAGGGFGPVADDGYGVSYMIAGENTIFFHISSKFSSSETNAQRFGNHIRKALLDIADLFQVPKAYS

[4] = biological target: T4, Carnitine O-palmitoyltransferase 1, liver isoform (Rattus norvegicus, UniProt P32198); experiment: (§2) SUPPLEMENTARY: Inhibition of Carnitine palmitoyltransferase 1, liver isoform
T4 sequence (P32198 whole entry): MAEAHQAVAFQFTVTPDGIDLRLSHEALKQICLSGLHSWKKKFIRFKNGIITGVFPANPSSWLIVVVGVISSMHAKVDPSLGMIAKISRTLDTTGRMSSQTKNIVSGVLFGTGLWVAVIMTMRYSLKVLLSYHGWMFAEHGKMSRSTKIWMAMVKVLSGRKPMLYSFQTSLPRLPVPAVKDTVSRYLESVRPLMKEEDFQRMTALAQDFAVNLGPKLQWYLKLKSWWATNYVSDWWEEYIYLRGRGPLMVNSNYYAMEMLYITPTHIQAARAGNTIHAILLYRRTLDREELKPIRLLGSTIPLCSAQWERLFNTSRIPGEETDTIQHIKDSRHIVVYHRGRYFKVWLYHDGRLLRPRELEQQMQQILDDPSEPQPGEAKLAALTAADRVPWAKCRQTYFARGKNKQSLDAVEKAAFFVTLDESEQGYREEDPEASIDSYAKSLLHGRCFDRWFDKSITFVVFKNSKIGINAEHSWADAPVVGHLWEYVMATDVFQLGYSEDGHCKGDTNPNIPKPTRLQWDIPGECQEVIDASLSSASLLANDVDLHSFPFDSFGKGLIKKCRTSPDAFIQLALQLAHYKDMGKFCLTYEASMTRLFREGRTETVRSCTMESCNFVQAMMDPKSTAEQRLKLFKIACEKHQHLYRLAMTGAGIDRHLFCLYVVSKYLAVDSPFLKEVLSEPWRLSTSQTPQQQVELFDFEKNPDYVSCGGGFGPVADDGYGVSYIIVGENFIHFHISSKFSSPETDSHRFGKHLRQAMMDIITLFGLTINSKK

[5] = biological target: T5, Carnitine O-palmitoyltransferase 1, liver isoform (Homo sapiens, UniProt P50416); experiment: as §2
T5 sequence (P50416 whole entry): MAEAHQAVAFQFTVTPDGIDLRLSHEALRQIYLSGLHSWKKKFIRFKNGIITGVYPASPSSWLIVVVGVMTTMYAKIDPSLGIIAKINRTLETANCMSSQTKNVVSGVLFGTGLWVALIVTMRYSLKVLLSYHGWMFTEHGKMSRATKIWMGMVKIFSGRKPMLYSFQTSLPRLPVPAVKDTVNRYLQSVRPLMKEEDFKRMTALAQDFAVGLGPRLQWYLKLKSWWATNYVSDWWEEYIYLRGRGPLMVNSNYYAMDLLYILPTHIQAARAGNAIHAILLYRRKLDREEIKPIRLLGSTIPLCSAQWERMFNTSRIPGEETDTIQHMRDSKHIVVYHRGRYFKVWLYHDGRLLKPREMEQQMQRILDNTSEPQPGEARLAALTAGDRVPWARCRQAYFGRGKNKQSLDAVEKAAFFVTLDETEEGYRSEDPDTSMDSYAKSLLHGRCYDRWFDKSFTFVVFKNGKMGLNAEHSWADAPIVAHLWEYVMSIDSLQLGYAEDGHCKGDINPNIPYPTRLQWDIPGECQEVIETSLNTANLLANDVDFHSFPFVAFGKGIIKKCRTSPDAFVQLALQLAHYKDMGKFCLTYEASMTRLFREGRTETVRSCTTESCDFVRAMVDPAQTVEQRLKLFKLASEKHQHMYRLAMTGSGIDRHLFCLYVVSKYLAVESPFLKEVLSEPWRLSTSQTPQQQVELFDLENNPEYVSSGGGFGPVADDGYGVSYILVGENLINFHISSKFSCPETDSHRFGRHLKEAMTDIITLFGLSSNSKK

[6] = SUPPLEMENTARY: PAMPA permeability assay; type: physicochemical; details: read-out: Permeability
[7] = SUPPLEMENTARY: Lyophilisation Solubility Assay (LYSA); type: physicochemical; details: read-out: Kinetic_solubility

| SMILES | IC50 [1] [µM] | IC50 [2] [µM] | IC50 [3] [µM] | IC50 [4] [µM] | IC50 [5] [µM] | Papp [6] [×10⁻⁶ cm/s] | solubility kinetic [7] [µg/mL] |
| --- | --- | --- | --- | --- | --- | --- | --- |
| O=C(Cn1cc(-c2ccccc2)c2ccccc21)Nc1ccc(C(=O)O)cc1 | > 100 | 15.4 | 0.512 | 1.39 | 0.474 | 1.73 | 19 (≈ 51.3 µM) |
| COc1ccc(Cl)cc1S(=O)(=O)N1COc2c(Cl)cc(C(=O)Nc3ccc(C(=O)O)cc3)cc21 | 68.2 | 33.7 | > 100 | 0.0345 | 0.0436 | 3.92 | 4 (≈ 7.64 µM) |
| CCn1cc(Sc2cc(Cl)ccc2OC)c2cc(C(=O)Nc3ccc(C(=O)O)cc3)ccc21 | > 100 | > 100 | > 100 | 0.473 | 0.169 | 0.71 | 4 (≈ 8.32 µM) |
| COc1ccc(Cl)cc1CN1C(=O)C2(CC2)c2ccc(C(=O)Nc3ccc(C(=O)O)cc3)cc21 | 19.6 | 1.27 | 11 | 0.148 | 0.123 | 1.24 | 13 (≈ 27.3 µM) |
| Cn1cc(Sc2cccc(Cl)c2)c2cc(C(=O)Nc3ccc(C(=O)O)cc3)ccc21 | 7.4 | 5.07 | 1.13 | 0.0214 | 0.0434 | 0.13 | 7 (≈ 16 µM) |
| Cc1cc(C)cc(S(=O)(=O)n2ccc3ccc(C(=O)Nc4ccc(CC(=O)O)cc4)cc32)c1 | > 100 | > 100 | 0.95 | 0.151 | 0.152 | 1.89 | 6 (≈ 13 µM) |
| O=C(NC1CC1)c1cncc(-c2noc([C@H]3CCCCN3C(=O)COc3ccccc3)n2)c1 | > 100 | > 100 | > 100 | 1 | 0.111 | 3.2 | 138 (≈ 308 µM) |
| COc1ccc(C)cc1S(=O)(=O)n1ccc2ccc(C(=O)Nc3ccc(C(=O)O)cc3)cc21 | 2.67 | 1.07 | 2.65 | 0.0119 | 0.0294 | 1.23 | < 1 |
| COc1ccc(Cl)cc1S(=O)(=O)c1nn(CCC(=O)O)c2ccc(C(=O)Nc3ccccc3)cc12 | > 100 | > 100 | 49.4 | 0.0066 | 0.0147 | 0.67 | 25 (≈ 48.6 µM) |
| Cc1cc(C(=O)Nc2ccc(-c3nnn[nH]3)cc2)nn1Cc1ccc(OC(F)F)cc1 | 81.6 | 72.6 | 6.17 | 0.932 | 0.192 | 1.23 | 31 (≈ 72.9 µM) |
| COc1ccc(Cl)cc1S(=O)(=O)N1COc2c(F)cc(C(=O)Nc3ccc(CC(=O)O)cc3)cc21 | > 100 | > 100 | 0.614 | 0.132 | 0.155 | 2.84 | 38 (≈ 72.9 µM) |
| O=C(Nc1ccc(C(=O)O)c(F)c1)c1ccc2c(c1)N(S(=O)(=O)c1cccc(Cl)c1)CCO2 | > 100 | 18.6 | 6.92 | 0.0723 | 0.207 | 2.21 | 4 (≈ 8.15 µM) |
